Data on 8 compounds can be found in ChEMBL document CHEMBL5029172, “Neopentyl Glycol as a Scaffold to Provide Radiohalogenated Theranostic Pairs of High In Vivo Stability” (J Med Chem, 2021).

Series [1] can be described thus: Metabolic stability in mouse liver microsomes assessed as retention time at […] measured after 5 mins by RP-HPLC. In kind it is ADME, Microsome.
The nature of series [2]: Metabolic stability in human liver microsomes assessed as retention time at […] measured after 5 mins by RP-HPLC. In kind it is ADME, Microsome. On the technique in general: Liver microsomes are vesicles of endoplasmic reticulum, rich in cytochrome P450 enzymes.
A short description of series [3]: Metabolic stability in mouse liver microsomes assessed as intact fractions at […] preincubated for 5 min measured by TLC followed by RP-HPLC. Format: ADME, Microsome. The settings on record: read-out: Activity.
The nature of series [4]: Metabolic stability in human liver microsomes assessed as intact fractions at […] preincubated for 5 min measured by TLC followed by RP-HPLC. Format: ADME, Microsome. Particulars: read-out: Activity; call rule not given here.
A short description of series [5]: Biodistribution in ICR mouse stomach at 7.4 kBq, iv upto 24 hrs. Format: ADME, organism-based. The settings on record: in vivo.
Series [6] is described as follows: Biodistribution in ICR mouse assessed as blood clearance by measuring elimination rate at 7.4 kBq, iv upto 24 hrs. Format: ADME, organism-based. The settings on record: in vivo.
Series [7] in a line: Drug metabolism in ICR mouse urine assessed as metabolite during retention time measured at 7.4 kBq, iv after 6 hrs by RP-HPLC followed by HILIC-HPLC analysis. Format: ADME, organism-based.
A short description of series [8]: Stability of compound in presence of GSH measured upto 24 hrs by TLC radiochromatogram. Format: physicochemical.
The nature of series [9]: Biodistribution in ICR mouse neck at 7.4 kBq, iv upto 24 hrs. The settings on record: in vivo. In kind it is ADME, organism-based.
Series [10] can be described thus: Metabolic stability in mouse liver microsomes assessed as intact fractions at 0.3 MBq preincubated for 5 min measured by TLC analysis. Format: ADME, Microsome. Particulars: read-out: Stability.
A short description of series [11]: Metabolic stability in human liver microsomes assessed as intact fractions at 0.3 MBq preincubated for 5 min measured by TLC analysis. Format: ADME, Microsome. The settings on record: read-out: Stability.

For `CCC(C[125I])(CO[C@@H]1O[C@H](C(=O)O)[C@@H](O)[C@H](O)[C@H]1O)Cn1ccnc1[N+](=O)[O-]` (stereo partly specified), the Retention_time in series [1] and in series [2] was < 0.2 min in each case. In addition, the remaining at 5 min in series [3] and in [4] was > 99.8% each time.

Regarding `CCC(CC)(C[125I])Cn1ccnc1[N+](=O)[O-]`, the Drug uptake result in [5] and in series [9] was “Active” throughout. Also, the CL entry in [6] is “Not Active”. Besides, the Drug excretion result in series [7] is recorded as “Active”. In addition, the Retention_time in series [1] is reported as 52.6 min; in series [2], 16.5 min. Besides, the remaining at 5 min in series [3] was found to be 2.2%; in series [4], 1.5%. Further, in series [8], the Stability entry is recorded as “Stable”.

In the case of `O=[N+]([O-])c1nccn1CC(CO)(CO)C[211At]`, the Drug uptake entry in series [5] and in series [9] was “Not Active” each time. In addition, the remaining at 5 min, 0.3 MBq in series [10] and in series [11] was 96.9% throughout. In addition, in series [6], the CL result is on record as “Active”. In [7], the Drug metabolism result is given as “Metabolite_Detected”. The remaining at 5 min in series [3] and in series [4] was 96.9% each time. Also, the Stability entry in series [8] is reported as “Stable”.

In the case of `O=C(NCCn1ccnc1[N+](=O)[O-])c1cccc([211At])c1`, the Drug uptake result in series [5] and in [9] was “Active” each time. Also, the CL result in series [6] is reported as “Not Active”.

`O=[N+]([O-])c1nccn1CC(CO)(CO)C[125I]`: the Drug uptake result in [5] and in [9] was “Not Active” each time. In series [6], the CL entry is “Active”. Moreover, the Drug metabolism entry in series [7] is listed as “Metabolite_Detected”. For the same compound, the Retention_time in [1] and in [2] was < 0.2 min each time. In addition, the remaining at 5 min in series [3] and in [4] was > 99.8% each time. Besides, the Stability entry in series [8] is “Stable”.

`O=C(O)[C@H]1O[C@@H](OCC(CO)(C[125I])Cn2ccnc2[N+](=O)[O-])[C@H](O)[C@@H](O)[C@@H]1O` (stereo partly specified): the Retention_time in [1] and in series [2] was < 0.2 min in each case. The remaining at 5 min in [3] and in [4] was > 99.8% in each case.

Consider `CCC(CO)(C[125I])Cn1ccnc1[N+](=O)[O-]` (stereo unspecified), for which the Drug uptake entry in [5] and in [9] was “Not Active” throughout. In series [6], the CL entry is “Active”. In [7], the Drug excretion result was “Active”. Further, the Retention_time in series [1] is listed as 23.5 min; in [2], < 0.2 min. For the same compound, the remaining at 5 min is 72% in series [3] and > 99.8% in [4]. Also, the Stability result in series [8] is “Stable”.

Regarding `O=C(NCCn1ccnc1[N+](=O)[O-])c1cccc([125I])c1`, the Drug uptake result in series [5] and in [9] was “Not Active” throughout. In addition, the CL result in [6] was “Active”. Also, the Drug excretion entry in series [7] is on record as “Not Active”.
